# Laboratory results published in patent US20240415793A1, “Neuroprotective composition comprising pyruvate and citrate” (N.V. Nutricia, priority 2022, published 2024).
# Columns and labels:
# [1] = system: primary rat neuronal-glial cell cultures; assay: Seahorse assay (OCR/ECAR), acute 1 h nutrient pre-incubation, resting or seizure-like conditions; type: cell-based; details: for increase in OM-induced glycolytic rates (tended): FIG. 3D
# [2] = system: neuroglial cell cultures; assay: Seahorse assay (OCR/ECAR), 24-hour incubation with citrate under resting conditions; type: cell-based, rat; details: 0.8 mM Mg2+, vs control medium; for increase in basal glycolytic rates: FIG. 5A; for increase in OM-induced increase in glycolytic rates: FIG. 5B; for increase in FCCP-induced maximal glycolytic capacity: FIG. 5C
# Protocol: The oxygen consumption rates (OCRs) and extracellular acidification rates (ECARs) of cells seeded in 96-well plates were monitored in real time at 37° C. in unbuffered Hanks Balanced Salt Solution (HBSS). The OCRs represent foremost mitochondrial respiration, and to a minor extent non-mitochondrial respiration. The ECARs relate foremost to the acidification of the medium with lactate produced through glycolysis and secreted by the cells into the medium (Table 1).
# During the Seahorse run, both the OCRs and ECARs were measured simultaneously at baseline and following the injection of compounds by the Seahorse instrument (Table 1). HBSS was supplemented with glucose from the start and no glucose was injected through the Seahorse instruments. Measurements were repeated three times at baseline and three times after each compound injection.
# After the initial baseline measurement, oligomycin (OM) was injected. OM blocks mitochondrial ATP synthase (complex V) and therefore decreases mitochondrial respiration. The OCRs after OM injection are due to the mitochondrial proton leak. They enable to determine whether the test nutrients impact the proton leak. The difference in OCRs at baseline and after OM injection is the amount of oxygen used for mitochondrial ATP synthesis at baseline. From this difference in OCR, the mitochondrial ATP production rates are calculated.
# After OM, uncoupling agent carbonyl cyanide-p- trifluoromethoxyphenyl-hydrazon [FCCP] was injected which collapses the proton gradient across the inner mitochondrial membrane established during respiration and required for ATP synthesis. The cells attempt to restore the proton gradient following FCCP injection by maximizing respiration. The OCRs measured after FCCP injection therefore represent the maximal respiratory capacity of the mitochondria in the sample and enable to determine whether test nutrients impact the maximal respiratory capacity of the mitochondria.
# Finally, Antimycin A, a complex III inhibitor, and Rotenone, a complex I inhibitor, were co-injected, both blocking the respiratory chain at different sites to entirely shut down mitochondrial respiration and determine the non-mitochondrial respiration. The latter is necessary to correct all OCRs and obtain the mitochondrial OCRs.
# The ECARs were measured simultaneously at baseline and after OM and FCCP injection. The glycolytic ATP production was calculated from the baseline ECARs. The subsequent injection of OM pushed the cells to maximize their glycolytic ATP production to compensate for the loss in mitochondrial ATP production inflicted by OM. The further addition of FCCP drove mitochondrial respiration to a maximum and this eventually led to a further increase in glycolytic rates providing pyruvate into the TCA cycle to sustain maximal respiration. Therefore, the ECARs after FCCP injection were used to determine the maximum glycolytic capacity of the cells.
# Further, the effects of a 24-hour incubation with citrate on glycolysis, mitochondrial respiration and total (glycolytic and mitochondrial) energy (ATP) production under resting conditions was assessed. Neuroglial cell cultures were grown in Neurobasal medium (NBM) supplemented with B27, high (25 mM) glucose, and high (0.8 mM) Mg2+ from DIV0 until DIV14. They were switched to NBM supplemented with B27, low (5 mM) glucose, and high (0.8 mM) Mg^2+ from DIV14 until DIV16. On DIV16, the medium was exchanged for DMEM (which is, in contrast to HBSS, not a nutrient-deprived medium) containing low (5 mM) glucose, high (0.8 mM) Mg^2+ and 500 μM or 1 mM citrate. On DIV17, one hour prior to the Seahorse run, the medium was replaced with unbuffered DMEM containing low (5 mM) glucose, high (0.8 mM) Mg^2+ and 500 μM or 1 mM citrate. The cells were left in this medium until the end of the run. Five repeats per condition were done.
compound,measurement,setting,value
O=C(O)CC(O)(CC(=O)O)C(=O)O [citrate],increase in OM-induced glycolytic rates (tended),"[1]; 1 mM citrate, 0.1 mM Mg2+ medium",~15%
same,increase in total (mitochondrial and glycolytic) ATP production,"[1]; 1 mM citrate, 0.8 mM Mg2+ control medium, FIG. 3A",~75%
same,increase in basal mitochondrial respiration,"[1]; 1 mM citrate, 0.8 mM Mg2+ control medium, FIG. 3B",~100%
same,increase in FCCP-driven maximal glycolytic capacity (tended),"[1]; 1 mM citrate, 0.8 mM Mg2+ control medium, FIG. 3E",~35%
same,increase in basal glycolytic rates,"[1]; 1 mM citrate, 0.8 mM Mg2+ medium, FIG. 3C",~70%
same,increase in OM-induced glycolytic rates (tended),"[1]; 1 mM citrate, 0.8 mM Mg2+ medium",~60%
same,increase in mitochondrial oxygen consumption rates (OCR) at baseline,"[1]; resting, high Mg2+ medium (DMEM, 5 mM glucose), dose-dependent, vs control medium without citrate, FIG. 1E",≤ 25%
same,increase in OM-induced proton leak,"[1]; resting, high Mg2+ medium (DMEM, 5 mM glucose), vs control medium without citrate, FIG. 1F",≤ 10%
same,effect on FCCP-driven maximal respiratory capacity,"[1]; resting, high Mg2+ medium (DMEM, 5 mM glucose), vs control medium without citrate, FIG. 1G",not significantly impacting
same,increase in OM- and FCCP-induced maximal glycolytic capacity,"[1]; resting, high Mg2+ medium, 0.25 mM citrate, FIG. 2E, F",10-15%
same,increase in basal glycolytic rates and lactate secretion,"[1]; resting, high Mg2+ medium, acute, dose-dependent, FIG. 2D",~25%
same,increase in basal mitochondrial respiration,"[2]; 500 μM and 1 mM citrate, FIG. 4B",~60%
same,increase in FCCP-induced maximal mitochondrial respiratory capacity,"[2]; 500 μM and 1 mM citrate, FIG. 4C",60-70%
same,increase in basal mitochondrial and glycolytic ATP production,"[2]; 500 μM and 1 mM citrate, DMEM 5 mM glucose, FIG. 4A",~45%
same,increase in basal glycolytic rates,[2]; 500 μM citrate,~45%
same,increase in OM-induced increase in glycolytic rates,[2]; 500 μM citrate,~70%
same,increase in FCCP-induced maximal glycolytic capacity,[2]; 500 μM citrate,~75%
same,increase in basal glycolytic rates,[2]; 1 mM citrate,~20%
same,increase in OM-induced increase in glycolytic rates,[2]; 1 mM citrate,~30%
same,increase in FCCP-induced maximal glycolytic capacity,[2]; 1 mM citrate,~50%
